Assay results from patent EP4752152A1, “STEROID COMPOUND, AND PREPARATION METHOD THEREFOR AND USE THEREOF” (Cholesgen (Shanghai) Co.Ltd., priority 2023, dated 2025).

Test system: SREBP pathway
Test: SREBP luciferase reporter gene system (SRE-luciferase assay)
Type: cell-based, human
Conditions: Huh-7/SRE-luc cells, sterol-deficient medium, 0.01-10 µM
Outline: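 Readout was SRE-driven luciferase normalised to GFP fluorescence in lysates of stably transfected Huh-7/SRE-luc hepatoma cells. Compounds (0.01, 0.03, 0.1, 0.3, 1.0, 3.0, 10 µM; DMSO control) were applied for 16 h in sterol-depleted medium with 2 µM lovastatin and 10 µM mevalonate; IC50 from variable-slope fit.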

COc1ccc(F)c(C(O)CCC[C@@H](C)[C@H]2CC[C@H]3[C@H]4[C@H](CC[C@]23C)[C@@]2(C)CC[C@H](O)[C@H](O)[C@@H]2CC4(F)F)c1 (single isomer, unassigned) [Compound 167, (1R,3aS,3bS,5aR,6R,7S,9aR,9bS,11aR)-4,4-difluoro-1-[(2R,6R)-6-(2-fluoro-5-methoxyphenyl)-6-hydroxyhexan-2-yl]-9a,11a-dimethylhexadecahydro-1H-cyclopenta[1,2-a]phenanthrene-6,7-diol or (1R,3aS,3bS,5aR,5aR,6R,7S,9aR,9bS,11aR) -4,4-difluoro-1-[(2R,6S)-6-(2-fluoro-5-methoxyphenyl)-6-hydroxyhexan-2-yl]-9a,11a-dimethylhexadecahydro-1H-cyclopenta[1,2-a]phenanthrene-6,7-diol]
IC50 (16 hours): 0.88 µM

C[C@H](CCCC(O)c1cccc2nnn(C)c12)[C@H]1CC[C@H]2[C@H]3[C@H](CC[C@]12C)[C@@]1(C)CC[C@H](O)[C@H](O)[C@@H]1CC3(F)F (single isomer, unassigned) [Compound 277, (1R,3aS,3bS,5aR,6R,7S,9aR,9bS,11aR)-4,4-difluoro-1-[(2R,6S)-6-hydroxy-6-(3-methylbenzo[d][1,2,3]triazol-4-yl)hexan-2-yl]-9a,11a-dimethylhexadecahydro-1H-cyclopenta[1,2-a]phenanthrene-6,7-diol or (1R,3aS,3bS,5aR,6R,7S,9aR,9bS,11aR)-4,4-difluoro-1-[(2R,6R)-6-hydroxy-6-(3-methylbenzo[d][1,2,3]triazol-4-yl)hexan-2-yl]-9a,11a-dimethylhexadecahydro-1H-cyclopenta[1,2-a]phenanthrene-6,7-diol]
IC50 (Homo sapiens, Huh-7, 16 h): 0.369 µM

C[C@H](CCCC(O)c1c(F)ccnc1F)[C@H]1CC[C@H]2C3=C(F)C[C@H]4[C@@H](O)[C@@H](O)CC[C@]4(C)[C@H]3CC[C@]12C (stereo partly drawn) [Compound 145, (1R,3aR,5aR,6R,7S,9aR,9bR,11aR)-1-[(2R)-6-(2,4-difluoropyridin-3-yl)-6-hydroxyhexan-2-yl]-4-fluoro-9a,11a-dimethyl-2,3,3a,5,5a,6,7,8,9,9a,9b,10,11,11a-tetradecahydro-1H-cyclopenta[1,2-a]phenanthrene-6,7-diol]
IC50 (Homo sapiens, Huh-7, 16 h): 0.35 µM

COc1c(F)cccc1C(O)CCC[C@@H](C)[C@H]1CC[C@H]2C3=C(F)C[C@H]4[C@@H](O)[C@@H](O)CC[C@]4(C)[C@H]3CC[C@]12C (stereo partly drawn) [Compound 48, (1R,3aR,5aR,6R,7S,9aR,9bR,11aR)-4-fluoro-1-[(2R)-6-(3-fluoro-2-methoxyphenyl)-6-hydroxyhexan-2-yl]-9a,11a-dimethyl-2,3,3a,5,5a,6,7,8,9,9a,9b,10,11,11a-tetradecahydro-1H-cyclopenta[1,2-a]phenanthrene-6,7-diol]
IC50 (Homo sapiens, Huh-7, 16 h): 0.203 µM

C[C@H](CCCC(O)c1ccc(F)nc1O)[C@H]1CC[C@H]2[C@H]3[C@H](CC[C@]12C)[C@@]1(C)CC[C@H](O)[C@H](O)[C@@H]1CC3(F)F (stereo partly drawn) [Compound 276, (1R,3aS,3bS,5aR,6R,7S,9aR,9bS,11aR)-4,4-difluoro-1-[(2R)-6-(6-fluoro-2-hydroxypyridin-3-yl)-6-hydroxyhexan-2-yl]-9a,11a-dimethylhexadecahydro-1H-cyclopenta[1,2-a]phenanthrene-6,7-diol]
IC50 (Homo sapiens, Huh-7, 16 h): 0.925 µM

C[C@H](CCCC(O)c1cccc2cn[nH]c12)[C@H]1CC[C@H]2[C@H]3[C@H](CC[C@]12C)[C@@]1(C)CC[C@H](O)[C@H](O)[C@@H]1CC3(F)F (single isomer, unassigned) [Compound 268, (1R,3aS,3bS,5aR,6R,7S,9aR,9bS,11aR)-4,4-difluoro-1-[(2R,6S)-6-hydroxy-6-(1H-indazol-7-yl)hexan-2-yl]-9a,11a-dimethylhexadecahydro-1H-cyclopenta[1,2-a]phenanthrene-6,7-diol or (1R,3aS,3bS,5aR,6R,7S,9aR,9bS,11aR)-4,4-difluoro-1-[(2R,6R)-6-hydroxy-6-(1H-indazol-7-yl)hexan-2-yl]-9a,11a-dimethylhexadecahydro-1H-cyclopenta[1,2-a]phenanthrene-6,7-diol]
IC50 (16 hours): 0.141 µM

COc1nccnc1[C@@H](O)CCC[C@@H](C)[C@H]1CC[C@H]2[C@H]3[C@H](CC[C@]12C)[C@@]1(C)CC[C@H](O)[C@H](O)[C@@H]1CC3(F)F [Compound 155, (1R,3aS,3bS,5aR,6R,7S,9aR,9bS,11aR)-4,4-difluoro-1-[(2R,6S)-6-hydroxy-6-(3-methoxypyrazin-2-yl)hexan-2-yl]-9a,11a-dimethylhexadecahydro-1H-cyclopenta[1,2-a]phenanthrene-6,7-diol]
IC50 (Homo sapiens, Huh-7, 16 h): 0.188 µM

C[C@H](CCC(=O)N(C)c1ccccc1F)[C@H]1CC[C@H]2C3=C(F)C[C@H]4[C@@H](O)[C@@H](O)CC[C@]4(C)[C@H]3CC[C@]12C [Compound 96, (4R)-4-[(1R,3aR,5aR,6R,7S,9aR,9bR,11aR)-4-fluoro-6,7-dihydroxy-9a,11a-dimethyl-2,3,3a,5,5a,6,7,8,9,9a,9b,10,11,11a-tetradecahydro-1H-cyclopenta[1,2-a]phenanthren-1-yl]-N-(2-fluorophenyl)-N-methylpentanamide]
IC50 (Homo sapiens, Huh-7, 16 h): 0.34 µM

COc1cccc(F)c1[C@H](O)CCC[C@@H](C)[C@H]1CC[C@H]2[C@H]3[C@H](CC[C@]12C)[C@@]1(C)CC[C@H](O)C[C@@H]1CC3(F)F (single isomer, unassigned) [Compound 315]
IC50 (Homo sapiens, Huh-7, 16 h): 0.125 µM

COc1ncc(F)cc1[C@@H](O)CCC[C@@H](C)[C@H]1CC[C@H]2[C@H]3[C@H](CC[C@]12C)[C@@]1(C)CC[C@H](O)[C@H](O)[C@@H]1CC3(F)F (single isomer, unassigned) [Compound 228]
IC50 (Homo sapiens, Huh-7, 16 h): 1.42 µM

COc1cc(F)c(C(O)CCC[C@@H](C)[C@H]2CC[C@H]3[C@H]4[C@H](CC[C@]23C)[C@@]2(C)CC[C@H](O)[C@H](O)[C@@H]2CC4(F)F)c(OC)c1 (stereo partly drawn) [Compound 182, (1R,3aS,3bS,5aR,6R,7 S,9aR,9bS,11aR)-4,4-Difluoro-1-[(2R)-6-(2-fluoro-4,6-dimethoxyphenyl)-6-hydroxyhexan-2-yl]-9a,11a-dimethylhexadecahydro-1H-cyclopenta[1,2-a]phenanthrene-6,7-diol]
IC50 (Homo sapiens, Huh-7, 16 h): 0.121 µM

C[C@H](CCC[C@@H](O)c1ccc(F)nc1OCC1COC1)[C@H]1CC[C@H]2[C@H]3[C@H](CC[C@]12C)[C@@]1(C)CC[C@H](O)[C@H](O)[C@@H]1CC3(F)F [Compound 386, (1R,3aS,3bS,5aR,6R,7S,9aR,9bS,11aR)-4,4-difluoro-1-[(2R,6R)-6-{6-fluoro-2-[(oxetan-3-ylmethyl)oxy]pyridin-3-yl}-6-hydroxyhexan-2-yl]-9a,11a-dimethylhexadecahydro-1H-cyclopenta[1,2-a]phenanthrene-6,7-diol]
IC50 (Homo sapiens, Huh-7, 16 h): 0.026 µM

COc1cccc(C(O)CCC[C@@H](C)[C@H]2CC[C@H]3C4=C(F)C[C@H]5[C@@H](O)[C@@H](O)CC[C@]5(C)[C@H]4CC[C@]23C)c1 (stereo partly drawn) [Compound 40, (1R,3aR,5aR,6R,7S,9aR,9bR,11aR)-4-fluoro-1-[(2R)-6-hydroxy-6-(3-methoxyphenyl)hexan-2-yl]-9a,11a-dimethyl-2,3,3a,5,5a,6,7,8,9,9a,9b,10,11,11a-tetradecahydro-1H-cyclopenta[1,2-a]phenanthrene-6,7-diol]
IC50 (Homo sapiens, Huh-7, 16 h): 0.25 µM

COc1nc(F)ccc1[C@@H](O)CC[C@@H](C)[C@H]1CC[C@H]2C3=C(F)C[C@H]4[C@@H](O)[C@@H](O)CC[C@]4(C)[C@H]3CC[C@]12C [Compound 339, (1R,3aR,5aR,6R,7S,9aR,9bR,11aR)-4-fluoro-1-[(2R,5S)-5-(6-fluoro-2-methoxypyridin-3-yl)-5-hydroxypentan-2-yl]-9a,11a-dimethyl-2,3,3a,5,5a,6,7,8,9,9a,9b,10,11,11a-tetradecahydro-1H-cyclopenta[1,2-a]phenanthrene-6,7-diol]
IC50 (Homo sapiens, Huh-7, 16 h): 0.143 µM

COc1nc(C(O)CCC[C@@H](C)[C@H]2CC[C@H]3[C@H]4[C@H](CC[C@]23C)[C@@]2(C)CC[C@H](O)[C@H](O)[C@@H]2CC4(F)F)cs1 (single isomer, unassigned) [Compound 220, (1R,3aS,3bS,5aR,6R,7S,9aR,9bS,11aR)-4,4-difluoro-1-[(2R,6R)-6-hydroxy-6-(2-methoxy-1,3-thiazol-4-yl)hexan-2-yl]-9a,11a-dimethylhexadecahydro-1H-cyclopenta[1,2-a]phenanthrene-6,7-diol or (1R,3aS,3bS,5aR,6R,7S,9aR,9bS,11aR)-4,4-difluoro-1-[(2R,6S)-6-hydroxy-6-(2-methoxy-1,3-thiazol-4-yl)hexan-2-yl]-9a,11a-dimethylhexadecahydro-1H-cyclopenta[1,2-a]phenanthrene-6,7-diol]
IC50 (16 hours): 0.04 µM

COc1cc(F)c(C(O)CCC[C@@H](C)[C@H]2CC[C@H]3[C@H]4[C@H](CC[C@]23C)[C@@]2(C)CC[C@H](O)[C@H](O)[C@@H]2CC4(F)F)c(F)c1 (single isomer, unassigned) [Compound 205, (1R,3aS,3bS,5aR,6R,7S,9aR,9bS,11aR)-1-[(2R,6R)-6-(2,6-difluoro-4-methoxyphenyl)-6-hydroxyhexan-2-yl]-4,4-difluoro-9a,11a-dimethylhexadecahydro-1H-cyclopenta[1,2-a]phenanthrene-6,7-diol or (1R,3aS,3bS,5aR,6R,7S,9aR,9bS,11aR)-1-[(2R,6S)-6-(2,6-difluoro-4-methoxyphenyl)-6-hydroxyhexan-2-yl]-4,4-difluoro-9a,11a-dimethylhexadecahydro-1H-cyclopenta[1,2-a]phenanthrene-6,7-diol]
IC50 (Homo sapiens, Huh-7, 16 h): 0.107 µM

COc1cc(F)cc(OC)c1C(O)CCC[C@@H](C)[C@H]1CC[C@H]2[C@H]3[C@H](CC[C@]12C)[C@@]1(C)CC[C@H](O)[C@H](O)[C@@H]1CC3(F)F (single isomer, unassigned) [Compound 222, (1R,3aS,3bS,5aR,6R,7S,9aR,9bS,11aR)-4,4-difluoro-1-[(2R,6S)-6-(4-fluoro-2,6-dimethoxyphenyl)-6-hydroxyhexan-2-yl]-9a,11a-dimethylhexadecahydro-1H-cyclopenta[1,2-a]phenanthrene-6,7-diol or (1R,3aS,3bS,5aR,6R,7S,9aR,9bS,11aR)-4,4-difluoro-1-[(2R,6R)-6-(4-fluoro-2,6-dimethoxyphenyl)-6-hydroxyhexan-2-yl]-9a,11a-dimethylhexadecahydro-1H-cyclopenta[1,2-a]phenanthrene-6,7-diol]
IC50 (Homo sapiens, Huh-7, 16 h): 0.137 µM
